Data on twelve compounds can be found in patent publication US20230027295A1, “FXIA INHIBITORS AND PREPARATION METHOD THEREFOR AND PHARMACEUTICAL USE THEREOF” (Shenzhen Salubris Pharmaceuticals Co., Ltd., priority 2019, published 2023).

The nature of one data set: Rat pharmacokinetics. It is filed as in vivo, SD rats. On the set-up: AUC: concentration or dose not given beside the values. Conditions: for AUC / Cmax / Tmax / clearance / half-life / Vd: male, SD, plasma; for Vd: read-out: Vss. From the text: Example 53: Investigation of the Pharmacokinetic Characteristics of the Compounds of the Present Invention
SD rats: male, 180-250 g, purchased from Guangdong Medical Laboratory Animal Center. Cynomolgus monkey: male, 4-6 kg, purchased from Guangzhou Chunsheng Biological Research Institute Co., Ltd. Beagle dog: male, 8-12 kg, developed in Kanglong Chemical (Ningbo) New Drug Technology Co., Ltd.
Reagents: DMSO (dimethyl sulfoxide), PEG-400 (polyethylene glycol 400), normal brine, heparin, acetonitrile, formic acid, and propranolol (internal standard) are commercially available.
Instrumentation: Thermo Fisher Scientific LC-MS (U300 UPLC, TSQ […] ULTRA triple quadrupole mass spectrometer).
The compound was weighed and dissolved in DMSO-PEG-400-physiological brine (5:60:35, v/v/v) system. After the rats/monkeys were administered intravenously or by gavage, 200 μL of venous blood was collected at 5 min (not collected when administered by gavage), 15 min, 30 min, 1 h, 2 h, 4 h, 6 h, 8 h, and 24 h in heparinized EP tubes, centrifuged at 12000 rpm for 2 min, and the plasma was frozen at −80° C. for testing. A certain amount of the test substance was precisely weighed and dissolved in DMSO to 1 mg/mL, which was used as a stock solution. An appropriate amount of compound stock solution was accurately pipetted and diluted with acetonitrile to prepare a standard series of solutions. 20 μL of each of the above standard series solutions were accurately pipetted, added with 180 μL of blank plasma, vortexed and mixed to prepare plasma samples equivalent to plasma concentrations of 1, 3, 10, 30, 100, 300, 1000, 3000 and 5000 ng/mL. Two-sample analysis was performed for each concentration to establish a standard curve. 20 μL of plasma was taken out, added with 200 μL of internal standard propranolol (5 ng/mL) in acetonitrile, vortexed and mixed. It was centrifuged at 4000 rpm for 5 min, and the supernatant was collected for LC-MS analysis. LC-MS detection conditions were as follows:
Chromatographic column: Thermo Scientific […] GOLD C-18 UPLC column, 100*2.1 mm, 1.9 μm.
Mobile phase: water (0.1% formic acid)-acetonitrile for gradient elution according to the table below.
After blood drug concentrations being detected by LC-MS, WinNonlin 6.1 software was used to calculate pharmacokinetic parameters by non-compartmental model method.

A further data set has as its target Human Factor XIa (Homo sapiens, UniProt P03951). In words: Inhibition of human coagulation factor XIa by absorptiometry (substrate S-2366). It is filed as biochemical. The settings on record: 37° C., 20 min incubation, absorbance 405 nm; read-out: hFXIa IC50. Here is the method:
Example 50: Detection of the Biological Activity of the Compounds of the Present Invention on the Inhibition of Human Coagulation Factor XIa by Absorptiometry
Buffer: 145 mM NaCl, 5 mM KCl, 1 mg/mL PEG 8000, 30 mM HEPES, pH 7.4
10 mM test compound dissolved in 100% DMSO was diluted with 100% DMSO to […]; 98 μL of FXIa enzyme solution (77.7 ng/mL) was added to each well of a 96-well plate, and 98 μL of buffer was added to the blank wells. 2 μL of compounds of different concentrations were added, and the blank and control wells were added with DMSO instead. They were mixed with a shaker, and incubated at 37° C. for 20 minutes.
Finally, 100 μL of 800 μM substrate was added to each well, and its absorbance was measured at 405 nm.

The next data set deals with human plasma. Put plainly: Anticoagulant effect on human plasma in vitro (APTT determination). It is filed as biochemical. The settings on record: for aPTT EC1.5×: concentration giving APTT of 1.5× blank control; for aPTT EC2×: concentration giving APTT of 2× blank control. Here is the method:
Example 51: Determination of the Anticoagulant Effect of the Compounds of the Present Invention on Human Plasma In Vitro
Plasma: Human blood was collected in a vacuum blood collection tube containing 3.2% sodium citrate (volume ratio 1:9), centrifuged at 3000 rpm for 10 min at room temperature, and the plasma was collected, divided into EP tubes, and stored at −80° C.
Reagents: APTT assay kit (Activated partial thromboplastin time assay kit, mindray), calcium chloride solution.
Instrument: coagulation meter (mindray, C2000-A)
The frozen human plasma in aliquots was thawed at room temperature and mixed well. 10 mM test compound dissolved in 100% DMSO was diluted with 100% DMSO to 1500, 750, 375, 187.5, 93.75, 46.88, 23.44, 11.72 μM. 98 μL of human plasma was added to a 1.5 mL EP tube, then 2 μL of compounds of different concentrations were added, and 2 μL of 100% DMSO was added for the blank group. They were incubated under a water bath at 37° C. for 10 min, and the samples were placed in the corresponding position of the coagulation analyzer to conduct APTT determination of the compounds.
Curve fitting was performed with GraphPad Prism software, and EC1.5× and EC2× values were calculated respectively, i.e., the concentrations of the compounds corresponding to the APTT of 1.5× and 2× blank control group.

Chain of Human Factor XIa (P03951 388-625 limits assumed): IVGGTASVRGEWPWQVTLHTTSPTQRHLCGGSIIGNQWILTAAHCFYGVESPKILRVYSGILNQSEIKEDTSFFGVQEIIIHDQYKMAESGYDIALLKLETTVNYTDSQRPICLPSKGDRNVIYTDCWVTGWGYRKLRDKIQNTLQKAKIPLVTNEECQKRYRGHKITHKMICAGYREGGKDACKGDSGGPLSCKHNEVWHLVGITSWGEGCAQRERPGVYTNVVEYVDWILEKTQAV
Chain of Human Factor XIa (P03951 19-387 partner limits assumed): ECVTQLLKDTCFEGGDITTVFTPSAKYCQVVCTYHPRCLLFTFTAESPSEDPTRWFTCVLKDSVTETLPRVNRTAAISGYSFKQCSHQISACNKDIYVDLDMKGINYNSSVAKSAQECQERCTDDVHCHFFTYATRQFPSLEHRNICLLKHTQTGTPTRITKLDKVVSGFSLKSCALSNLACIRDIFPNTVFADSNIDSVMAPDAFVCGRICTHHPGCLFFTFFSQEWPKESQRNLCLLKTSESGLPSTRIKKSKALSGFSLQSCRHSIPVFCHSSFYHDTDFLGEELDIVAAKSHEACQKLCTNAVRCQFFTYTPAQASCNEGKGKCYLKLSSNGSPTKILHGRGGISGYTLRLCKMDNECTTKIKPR

In the case of `CC(=O)c1ccc(Cl)cc1-c1cc(=O)n([C@@H](Cc2ccccc2)C(=O)Nc2ccc(C(=O)O)cc2)nc1OC1COC1` [Example 24, (S)-4-(2-(4-(2-acetyl-5-chlorophenyl)-6-oxo-3-(oxetan-3-yloxy)-pyridazine-1(6H)-yl)-3-phenylpropanamido)benzoic acid], in the data set “Rat pharmacokinetics” (ig), the F turned out to be 3.9%. In “Rat pharmacokinetics” (iv), the AUC is 0.457 µg·h/mL, the highest level (Cmax) was 1.27 µg/mL, the Tmax came to 4.98 min and the clearance is 2.19 L/h/kg. Besides, in “Rat pharmacokinetics” (iv), the half-life is 168 min and the Vd was determined as 1.14 L/kg. Also, in “Rat pharmacokinetics” (po, ig), the AUC amounted to 0.0935 µg·h/mL, the Cmax stood at 0.0437 µg/mL, the Tmax came to 30 min and the half-life was 104 min. For the same compound, the IC50 on Human Factor XIa was 0.023 µM. Besides, in the data set on human plasma, the “aPTT EC1.5×” value came to 0.769 µM and the “aPTT EC2×” value stood at 2.785 µM.
In “Rat pharmacokinetics” (ig), `CCOc1nn([C@@H](Cc2ccccc2)C(=O)Nc2ccc(C(=O)O)cc2)c(=O)cc1-c1cc(Cl)ccc1C(C)=O` [Example 16, (S)-4-(2-(4-(2-acetyl-5-chlorophenyl)-3-ethoxy-6-oxopyridazin-1(6H)-yl)-3-phenylpropanamido)benzoic acid] yielded an F of 8.1%. Also, in the data set “Rat pharmacokinetics” (iv), the AUC was found to be 1.09 µg·h/mL, the peak level (Cmax) was 2.53 µg/mL, the Tmax was 4.98 min and the clearance came out at 0.996 L/h/kg. Moreover, in the data set “Rat pharmacokinetics” (iv), the half-life is 40.6 min and the Vd worked out at 0.444 L/kg. Further, in “Rat pharmacokinetics” (po, ig), the AUC is 0.481 µg·h/mL, the Cmax was found to be 0.16 µg/mL, the Tmax amounted to 22.5 min and the half-life was 81 min. At Human Factor XIa, the IC50 amounted to 0.0132 µM. In the data set with human plasma, the “aPTT EC1.5×” value stood at 1.005 µM and the “aPTT EC2×” value was found to be 4.768 µM.
With `CC(=O)c1ccc(Cl)cc1-c1cc(=O)n([C@@H](Cc2ccccc2)C(=O)Nc2ccc(C(=O)O)cc2)nc1OC(F)F` [Example 25, (S)-4-(2-(4-(2-acetyl-5-chlorophenyl)-3-(difluoromethoxy)-6-oxopyridazin-1(6H)-yl)-3-phenylpropanamido)benzoic acid], in “Rat pharmacokinetics” (ig), the F turned out to be 8.6%. Further, in the data set “Rat pharmacokinetics” (iv), the area under the curve (AUC) came to 0.889 µg·h/mL, the Cmax stood at 1.78 µg/mL, the Tmax stood at 4.98 min and the clearance was determined as 1.36 L/h/kg. For the same compound, in “Rat pharmacokinetics” (iv), the half-life is 48 min and the Vd stood at 0.915 L/kg. Further, in the data set “Rat pharmacokinetics” (po, ig), the AUC turned out to be 0.461 µg·h/mL, the Cmax is 0.125 µg/mL, the Tmax was found to be 37.5 min and the half-life was 158 min. Moreover, the IC50 on Human Factor XIa worked out at 0.0185 µM. For the same compound, in the data set with human plasma, the “aPTT EC1.5×” value was 1.782 µM and the “aPTT EC2×” value turned out to be 9.452 µM.
As to `COc1nn([C@@H](Cc2ccccc2)C(=O)Nc2ccc(C(=O)O)cc2)c(=O)cc1-c1cc(Cl)ccc1C(=O)C(F)F` [Example 36, (S)-4-(2-(4-(5-chloro-2-(2,2-difluoroacetyl)phenyl)-3-methoxy-6-oxopyridazine-1(6H)-yl)-3-phenylpropanamido)benzoic acid], the half-maximal inhibitory concentration (IC50) on Human Factor XIa came out at 0.0116 µM. For the same compound, in the data set with human plasma, the “aPTT EC1.5×” value amounted to 1.348 µM and the “aPTT EC2×” value came out at 6.562 µM.
Regarding `CC(=O)c1ccc(Cl)cc1-c1cc(=O)n([C@@H](Cc2ccccc2)C(=O)Nc2ccc(C(=O)O)cc2)nc1OCC(F)(F)F` [Example 23, (S)-4-(2-(4-(2-acetyl-5-chlorophenyl)-6-oxo-3-(2,2,2-trifluoroethoxy)pyridazine-1(6H)-yl)-3-phenylpropanamido)benzoic acid], the IC50 on Human Factor XIa turned out to be 0.0225 µM. For the same compound, in the data set on human plasma, the “aPTT EC1.5×” value worked out at 4.236 µM and the “aPTT EC2×” value was over 15 µM.
For `COc1nn(C(Cc2ccc(F)cc2)C(=O)Nc2ccc(C(=O)O)cc2)c(=O)cc1-c1cc(Cl)ccc1C(C)=O` (stereo not drawn) [Example 2], in that order: 0.0456 µM, 3.455 µM and over 15 µM.
For `COc1nn(C(Cc2ccc(N3CCN(C(C)C)CC3=O)cc2)C(=O)Nc2ccc(C(=O)O)cc2)c(=O)cc1-c1cc(Cl)ccc1C(C)=O` (stereo not drawn) [Example 4, 4-(2-(4-(2-acetyl-5-chlorophenyl)-3-methoxy-6-oxopyridazin-1(6H)-yl)-3-(4-(4-isopropyl-2-oxopiperazin-1-yl)phenyl)propanamido)benzoic acid], in that order: 0.0326 µM, 2.171 µM and 11.938 µM.
For `COc1nn([C@@H](Cc2ccccc2)C(=O)Nc2ccc(C(=O)O)cc2)c(=O)cc1-c1cc(Cl)ccc1C(=O)CO` [Example 35, (S)-4-(2-(4-(5-chloro-2-(2-hydroxyacetyl)phenyl)-3-methoxy-6-oxopyridazin-1(6H)-yl)-3-phenylpropanamido)benzoic acid], in that order: 0.0165 µM, 1.271 µM and 5.987 µM.
Compound `COc1nn([C@@H](Cc2ccccc2)C(=O)Nc2ccc3[nH]c(C(=O)O)cc3c2)c(=O)cc1-c1cc(Cl)ccc1C(C)=O` [Example 15, (S)-5-(2-(4-(2-acetyl-5-chlorophenyl)-3-methoxy-6-oxopyridazin-1(6H)-yl)-3-phenylpropanamido)-1H-indol-2-formic acid] yielded a F in “Rat pharmacokinetics” (ig) of 0.1%. For the same compound, in “Rat pharmacokinetics” (iv), the AUC came to 0.599 µg·h/mL, the highest level (Cmax) was 1.84 µg/mL, the Tmax came to 4.98 min and the clearance was 1.75 L/h/kg. In the data set “Rat pharmacokinetics” (iv), the half-life was 28 min and the Vd came to 0.471 L/kg. Further, in “Rat pharmacokinetics” (po, ig), the Cmax is 0.003 µg/mL and the Tmax is 30 min. Also, the IC50 on Human Factor XIa was 0.00152 µM. Moreover, in the data set on human plasma, the “aPTT EC1.5×” value amounted to 0.531 µM and the “aPTT EC2×” value amounted to 1.749 µM.
For the compound `COc1nn(C(Cc2ccc(C)cc2)C(=O)Nc2ccc(C(=O)O)cc2)c(=O)cc1-c1cc(Cl)ccc1C(C)=O` (stereo not drawn) [Example 7, 4-(2-(4-(2-acetyl-5-chlorophenyl)-3-methoxy-6-oxopyridazine-1(6H)-yl)-3-(p-tolyl)propanamido)benzoic acid], the IC50 on Human Factor XIa was 0.0243 µM. For the same compound, in the data set on human plasma, the “aPTT EC1.5×” value stood at 2.073 µM and the “aPTT EC2×” value was 12.58 µM.
On to `CCOCC1CCN(c2ccc(CC(C(=O)Nc3ccc(C(=O)O)cc3)n3nc(OC)c(-c4cc(Cl)ccc4C(C)=O)cc3=O)cc2)C(=O)C1` (stereo not drawn) [Example 5], for which, on Human Factor XIa, the IC50 stood at 0.00889 µM. Also, in the data set on human plasma, the “aPTT EC1.5×” value was 1.18 µM and the “aPTT EC2×” value is 4.414 µM.
For `CC(=O)c1ccc(Cl)cc1-c1cc(=O)n([C@@H](Cc2ccccc2)C(=O)Nc2ccc(C(=O)O)cc2)nc1OC(C)C` [Example 22, (S)-4-(2-(4-(2-acetyl-5-chlorophenyl)-3-isopropoxy-6-oxopyridazin-1(6H)-yl)-3-phenylpropanamido)benzoic acid], in that order: 0.0162 µM, 1.346 µM and 9.382 µM.

The AUC is concentration integrated over time. As a reminder, the Cmax is the peak of the concentration-time curve. The Tmax is the time at which the peak concentration occurs. For orientation: clearance means the volume of plasma or blood freed of the substance per unit of time. As usually defined, the half-life is how long it takes for the measured level to halve. Broadly, the IC50 is the concentration that inhibits the measured activity by half.
